Measurements from ChEMBL document CHEMBL1909588, “Synthesis and in vitro antitubercular evaluation of novel sansanmycin derivatives” (2011).
Converted amounts (≈) assume the structure as drawn.

system: Mycobacterium tuberculosis; assay: Antitubercular activity against rifampicin and isoniazid-resistant Mycobacterium tuberculosis isolate 2199 after 24 hrs by microplate alamar blue assay; format: functional; details: isolate 2199, 24 h

SMILES	MIC
CSCCC(NC(=O)NC(Cc1c[nH]c2ccccc12)C(=O)O)C(=O)NC(C(=O)N/C=C1\C[C@@H](O)[C@H](n2ccc(=O)[nH]c2=O)O1)C(C)N(C)C(=O)C(N)Cc1cccc(O)c1 (some centres undefined) [SANSANMYCIN A]	32 µg/mL (≈ 37 µM)
CSCCC(NC(=O)NC(Cc1c[nH]c2ccccc12)C(=O)O)C(=O)NC(C(=O)N/C=C1\C[C@@H](O)[C@H](n2ccc(=O)[nH]c2=O)O1)C(C)N(C)C(=O)C(Cc1cccc(O)c1)NC(C)C (some centres undefined)	8 µg/mL (≈ 8.83 µM)
NNC(=O)c1ccncc1 [ISONIAZID]	40 µg/mL (≈ 292 µM)
CO[C@H]1/C=C/O[C@@]2(C)Oc3c(C)c(O)c4c(O)c(c(/C=N/N5CCN(C)CC5)c(O)c4c3C2=O)NC(=O)/C(C)=C\C=C\[C@H](C)[C@H](O)[C@@H](C)[C@@H](O)[C@@H](C)[C@H](OC(C)=O)[C@@H]1C [RIFAMPIN]	20 µg/mL (≈ 24.3 µM)
